# “And” between values parts separate entries of the source, which are not always exact repeats. Equal values may be shown once. Where a name gives a salt, the structure may show the parent alone. Read-outs that look alike come from different tables or passages of the source.
# Legend:
# DrHCN4 = target: T1, DrHCN4 (Danio rerio, UniProt A0A8N7UQR8); experiment: Inhibition of HCN4 currents in Xenopus oocytes, two-electrode voltage clamp; type: cell-based, zebrafish (Danio rerio); conditions: holding −30 mV, hyperpolarized to −120 mV for 2 s, room temperature
# T1 sequence (A0A8N7UQR8 1-1140): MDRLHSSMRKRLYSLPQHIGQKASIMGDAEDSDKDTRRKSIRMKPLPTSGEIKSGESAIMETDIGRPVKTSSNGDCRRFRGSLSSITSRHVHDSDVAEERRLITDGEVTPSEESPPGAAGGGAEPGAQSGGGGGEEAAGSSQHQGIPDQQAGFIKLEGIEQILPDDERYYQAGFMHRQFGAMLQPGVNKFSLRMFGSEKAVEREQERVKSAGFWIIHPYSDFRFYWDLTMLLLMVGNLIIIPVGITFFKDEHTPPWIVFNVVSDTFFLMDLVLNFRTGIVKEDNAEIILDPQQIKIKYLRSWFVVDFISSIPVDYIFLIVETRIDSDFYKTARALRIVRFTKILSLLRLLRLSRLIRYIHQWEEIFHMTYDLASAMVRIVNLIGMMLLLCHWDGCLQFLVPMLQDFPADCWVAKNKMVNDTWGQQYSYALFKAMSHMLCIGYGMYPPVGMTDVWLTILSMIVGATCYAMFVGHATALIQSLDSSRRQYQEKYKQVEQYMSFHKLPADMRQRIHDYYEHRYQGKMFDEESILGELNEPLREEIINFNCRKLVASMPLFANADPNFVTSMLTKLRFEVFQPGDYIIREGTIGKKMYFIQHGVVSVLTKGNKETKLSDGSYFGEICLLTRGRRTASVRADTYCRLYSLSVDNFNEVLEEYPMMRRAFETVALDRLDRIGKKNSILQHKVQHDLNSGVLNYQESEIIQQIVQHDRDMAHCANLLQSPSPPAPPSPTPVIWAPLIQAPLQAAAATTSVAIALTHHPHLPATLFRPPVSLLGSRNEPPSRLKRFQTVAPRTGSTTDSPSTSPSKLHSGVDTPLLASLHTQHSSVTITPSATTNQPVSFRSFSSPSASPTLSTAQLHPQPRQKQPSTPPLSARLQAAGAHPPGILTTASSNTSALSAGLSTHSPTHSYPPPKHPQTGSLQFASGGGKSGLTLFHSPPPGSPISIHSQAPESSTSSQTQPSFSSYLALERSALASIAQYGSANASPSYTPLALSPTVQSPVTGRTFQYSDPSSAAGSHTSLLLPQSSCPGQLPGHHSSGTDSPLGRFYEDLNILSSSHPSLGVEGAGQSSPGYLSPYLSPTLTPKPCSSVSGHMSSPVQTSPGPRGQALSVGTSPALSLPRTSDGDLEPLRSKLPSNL
# HsHCN4 = target: T2, HsHCN4 (Homo sapiens, UniProt Q9Y3Q4); experiment: as above; type: cell-based; conditions: holding −30 mV, hyperpolarized to −120 mV for 2 s, room temperature
# T2 construct: host or cells: Xenopus laevis oocytes injected with cRNA (pGEMHE vector)
# T2 sequence (Q9Y3Q4 1-1203): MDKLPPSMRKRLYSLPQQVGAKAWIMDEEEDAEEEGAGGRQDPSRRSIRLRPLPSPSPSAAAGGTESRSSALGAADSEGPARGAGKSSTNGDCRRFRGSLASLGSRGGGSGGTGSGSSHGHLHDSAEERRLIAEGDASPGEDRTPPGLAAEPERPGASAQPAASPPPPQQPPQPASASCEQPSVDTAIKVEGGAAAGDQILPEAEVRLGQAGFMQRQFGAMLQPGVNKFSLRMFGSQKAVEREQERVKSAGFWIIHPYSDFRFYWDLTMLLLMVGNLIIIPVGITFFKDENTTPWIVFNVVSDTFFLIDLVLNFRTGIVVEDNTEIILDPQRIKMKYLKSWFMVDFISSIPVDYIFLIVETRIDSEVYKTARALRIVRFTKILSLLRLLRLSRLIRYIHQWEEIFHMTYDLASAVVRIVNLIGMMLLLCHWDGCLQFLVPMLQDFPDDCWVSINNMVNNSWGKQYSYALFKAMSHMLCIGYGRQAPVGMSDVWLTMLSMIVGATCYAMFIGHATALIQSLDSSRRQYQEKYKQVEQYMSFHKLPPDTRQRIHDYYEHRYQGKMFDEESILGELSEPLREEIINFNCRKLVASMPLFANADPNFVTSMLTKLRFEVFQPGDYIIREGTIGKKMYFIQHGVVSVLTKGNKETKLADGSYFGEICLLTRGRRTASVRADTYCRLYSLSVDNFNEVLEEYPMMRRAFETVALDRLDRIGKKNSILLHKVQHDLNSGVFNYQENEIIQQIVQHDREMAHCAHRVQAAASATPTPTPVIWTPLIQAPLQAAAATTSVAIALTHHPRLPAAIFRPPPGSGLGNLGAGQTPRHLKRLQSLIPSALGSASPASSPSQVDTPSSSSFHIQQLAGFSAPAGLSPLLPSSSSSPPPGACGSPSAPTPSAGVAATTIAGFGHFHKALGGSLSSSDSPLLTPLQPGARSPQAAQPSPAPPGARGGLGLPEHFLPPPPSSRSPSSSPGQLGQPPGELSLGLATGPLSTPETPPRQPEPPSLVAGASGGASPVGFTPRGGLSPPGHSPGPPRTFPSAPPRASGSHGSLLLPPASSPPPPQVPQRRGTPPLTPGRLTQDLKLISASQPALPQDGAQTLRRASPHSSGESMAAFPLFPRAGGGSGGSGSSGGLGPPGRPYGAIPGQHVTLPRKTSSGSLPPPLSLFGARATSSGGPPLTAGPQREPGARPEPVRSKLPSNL
# [1] = test system: developing zebrafish embryos; experiment: HCN inhibitors in egg water: heart rate of developing zebrafish embryos; conditions: for Effect on heart rate, concentration dependence: 10 μM, 100 μM, 24 h and 48 h; for Effect on heart rate, concentration dependence / Heart rate recovery after washout: 1 mM; for Heart rate recovery after washout: 6 h after washout; for Pericardial edema in inhibitor-treated zebrafish: zebrafish embryos treated with inhibitor
# [2] = DrHCN4 in Xenopus oocytes, read-out: IC50
# [3] = 0 h (24 hpf), before application of inhibitor, 1 mM group
# [4] = 24 h after application, 1 mM in egg water
# [5] = 48 h after application, 1 mM in egg water
# [6] = Washout, 6 h in inhibitor-free water after 48 h, 1 mM group
# [7] = 0 h (24 hpf), before application of inhibitor, 10 μM group
# [8] = 0 h (24 hpf), before application of inhibitor, 100 μM group
# [9] = 24 h after application, 10 μM in egg water
# [10] = 24 h after application, 100 μM in egg water
# [11] = 48 h after application, 10 μM in egg water
# [12] = 48 h after application, 100 μM in egg water
# [13] = Washout, 6 h in inhibitor-free water after 48 h, 10 μM group
# [14] = Washout, 6 h in inhibitor-free water after 48 h, 100 μM group
SMILES,"IC50 (DrHCN4; DrHCN4 in Xenopus oocytes, listed as Cs^+, read-out: IC50) [µM]",IC50 (DrHCN4; [2]) [µM],IC50 (HsHCN4),IC50 (HsHCN4; listed as Cs^+) [µM],"Heart rate [1, 3] [bpm]","Heart rate [1, 4] [bpm]","Heart rate [1, 5] [bpm]","Heart rate [1, 6] [bpm]","Heart rate [1, 7] [bpm]","Heart rate [1, 8] [bpm]","Effect on heart rate, concentration dependence [1]",Heart rate recovery after washout [1],"Heart rate [1, 9] [bpm]","Heart rate [1, 10] [bpm]","Heart rate [1, 11] [bpm]","Heart rate [1, 12] [bpm]","Heart rate [1, 13] [bpm]","Heart rate [1, 14] [bpm]",Pericardial edema in inhibitor-treated zebrafish [1],"IC50 (DrHCN4; IC50, DrHCN4 in Xenopus oocytes)"
"[Cl-].[Cs+] [Cesium ion, Cesium chloride]",44 ± 11,44.3 ± 11.2,68.8 ± 14 µM,69 ± 14,89 ± 1,131 ± 2,133 ± 2,139 ± 3,–,–,–,–,–,–,–,–,–,–,–,–
CCN(c1ccccc1)c1cc(=NC)n(C)c(C)n1.Cl [ZD7288],–,699 ± 216,167 ± 56 µM,–,84 ± 3,113 ± 3,94 ± 2,115 ± 2,81 ± 4,80 ± 3,"significantly lowered heart rate, except for a concentration of 10 μM at 24 h",recovered,150 ± 3,129 ± 1,142 ± 2,97 ± 4,160 ± 3,140 ± 4,no pericardial edema was observed,–
"COc1cc2c(cc1OC)CC(=O)N(CCCN(C)C[C@H]1Cc3cc(OC)c(OC)cc31)CC2 [Ivabradine, ivabradine hydrochloride]",–,–,38 µM and 37.6 µM,–,85 ± 2,98 ± 2,72 ± 2,115 ± 3,81 ± 3,81 ± 2,significantly suppressed heart rate at all concentrations and time points,recovered,134 ± 4,124 ± 5,133 ± 2,101 ± 2,149 ± 3,133 ± 3,no pericardial edema was observed,31 µM and 30.9 µM
